{"source": "patent US20090143423A1", "about": "“SOLID DISPERSION PRODUCT CONTAINING N-ARYL UREA-BASED COMPOUND” (ABBOTT GMBH & CO. KG, priority 2007, published 2009)", "key": {"[1]": {"assay": "Plasma concentration following multiple oral dosing in rat", "type": "in vivo, Sprague-Dawley rats", "details": "for AUC / Cmax / Tmax: mean; for half-life: harmonic mean", "experimental": "A study was conducted to explore the ABT-102 plasma concentrations following multiple oral dosing in rat. In this study, a 10, 30 or 100 mg/kg/day oral dose was administered once daily for eight consecutive days. The compound was prepared as a suspension of the spray dried material in water at concentrations appropriate for a 20 ml/kg/day dose volume in each treatment group. The study was conducted in Sprague-Dawley rats (3 male, 3 female per dose group). Animals were permitted free access to food and water throughout the study. Plasma concentrations of parent drug were determined on the first (Day 1) and last (Day 8) of dosing."}, "in vivo": {"assay": "in vivo", "details": "rat, po, 100 mg/kg", "experimental": "A study was conducted to evaluate effect of aging on the ABT-102 bioavailability obtained from suspensions of the spray dried material. Suspensions were prepared by stirring in water for 15 minutes at room temperature (5 mg/ml concentration). The suspensions were then stored refrigerated until dosing. Suspensions aged for 1, 4 and 7 days were compared to a suspension freshly prepared on the morning of dosing. Each of the aged suspension was evaluated in a group of three rats at a dose of 100 mg/kg (20 ml/kg). All four test formulations were evaluated in the same study. Plasma concentrations of parent drug were determined by HPLC-MS/MS."}, "[2]": {"assay": "Previously conducted human pharmacokinetics of ABT-102", "type": "in vivo", "details": "lipid-liquid formulation", "excerpt": "However, it is anticipated that the current spray dried formulation of the invention also achieves similar pharmacokinetic profile in humans."}, "[3]": {"details": "10 mg/kg/day oral, Day 1, aqueous suspension of spray-dried dispersion of Example 4 (part B)"}, "[4]": {"details": "10 mg/kg/day oral, Day 8, aqueous suspension of spray-dried dispersion of Example 4 (part B)"}, "[5]": {"details": "30 mg/kg/day oral, Day 1, aqueous suspension of spray-dried dispersion of Example 4 (part B)"}, "[6]": {"details": "30 mg/kg/day oral, Day 8, aqueous suspension of spray-dried dispersion of Example 4 (part B)"}, "[7]": {"details": "100 mg/kg/day oral, Day 1, aqueous suspension of spray-dried dispersion of Example 4 (part B)"}, "[8]": {"details": "100 mg/kg/day oral, Day 8, aqueous suspension of spray-dried dispersion of Example 4 (part B)"}, "[9]": {"details": "both sexes, Sprague-Dawley, plasma, po, 10 mg/kg/day, 10 mg/kg/day oral, Day 1, aqueous suspension of spray-dried dispersion of Example 4 (part B)"}, "[10]": {"details": "both sexes, Sprague-Dawley, plasma, po, 10 mg/kg/day, 10 mg/kg/day oral, Day 8, aqueous suspension of spray-dried dispersion of Example 4 (part B)"}, "[11]": {"details": "both sexes, Sprague-Dawley, plasma, po, 30 mg/kg/day, 30 mg/kg/day oral, Day 1, aqueous suspension of spray-dried dispersion of Example 4 (part B)"}, "[12]": {"details": "both sexes, Sprague-Dawley, plasma, po, 30 mg/kg/day, 30 mg/kg/day oral, Day 8, aqueous suspension of spray-dried dispersion of Example 4 (part B)"}, "[13]": {"details": "both sexes, Sprague-Dawley, plasma, po, 100 mg/kg/day, 100 mg/kg/day oral, Day 1, aqueous suspension of spray-dried dispersion of Example 4 (part B)"}, "[14]": {"details": "both sexes, Sprague-Dawley, plasma, po, 100 mg/kg/day, 100 mg/kg/day oral, Day 8, aqueous suspension of spray-dried dispersion of Example 4 (part B)"}}}
{"smiles": "CC(C)(C)c1ccc2c(c1)CCC2NC(=O)Nc1cccc2[nH]ncc12", "note": "(stereo in doubt) [ABT-102, 1-((R)-5-tert-butyl-indan-1-yl)-3-(1H-indazol-4-yl)-urea]", "values": [{"measurement": "AUC/D", "setting": "[1]; [3]", "value": 0.918, "unit": "μg · hr/mL per mg/kg"}, {"measurement": "Cmax/D", "setting": "[1]; [3]", "value": 0.073, "unit": "μg/mL per mg/kg"}, {"measurement": "AUC", "setting": "[1]; 10 mg/kg/day oral, Day 1, aqueous suspension of spray-dried dispersion of Example 4 (part B), 10 mg/kg/day", "value": 9180, "unit": "ng·h/mL"}, {"measurement": "AUC/D", "setting": "[1]; [4]", "value": 0.725, "unit": "μg · hr/mL per mg/kg"}, {"measurement": "Cmax/D", "setting": "[1]; [4]", "value": 0.060, "unit": "μg/mL per mg/kg"}, {"measurement": "AUC", "setting": "[1]; 10 mg/kg/day oral, Day 8, aqueous suspension of spray-dried dispersion of Example 4 (part B), 10 mg/kg/day", "value": 7250, "unit": "ng·h/mL"}, {"measurement": "AUC/D", "setting": "[1]; [5]", "value": 0.741, "unit": "μg · hr/mL per mg/kg"}, {"measurement": "Cmax/D", "setting": "[1]; [5]", "value": 0.046, "unit": "μg/mL per mg/kg"}, {"measurement": "AUC", "setting": "[1]; 30 mg/kg/day oral, Day 1, aqueous suspension of spray-dried dispersion of Example 4 (part B), 30 mg/kg/day", "value": 22220, "unit": "ng·h/mL"}, {"measurement": "AUC/D", "setting": "[1]; [6]", "value": 0.498, "unit": "μg · hr/mL per mg/kg"}, {"measurement": "Cmax/D", "setting": "[1]; [6]", "value": 0.044, "unit": "μg/mL per mg/kg"}, {"measurement": "AUC", "setting": "[1]; 30 mg/kg/day oral, Day 8, aqueous suspension of spray-dried dispersion of Example 4 (part B), 30 mg/kg/day", "value": 14950, "unit": "ng·h/mL"}, {"measurement": "AUC/D", "setting": "[1]; [7]", "value": 0.326, "unit": "μg · hr/mL per mg/kg"}, {"measurement": "Cmax/D", "setting": "[1]; [7]", "value": 0.021, "unit": "μg/mL per mg/kg"}, {"measurement": "AUC", "setting": "[1]; 100 mg/kg/day oral, Day 1, aqueous suspension of spray-dried dispersion of Example 4 (part B), 100 mg/kg/day", "value": 32610, "unit": "ng·h/mL"}, {"measurement": "AUC/D", "setting": "[1]; [8]", "value": 0.362, "unit": "μg · hr/mL per mg/kg"}, {"measurement": "Cmax/D", "setting": "[1]; [8]", "value": 0.026, "unit": "μg/mL per mg/kg"}, {"measurement": "AUC", "setting": "[1]; 100 mg/kg/day oral, Day 8, aqueous suspension of spray-dried dispersion of Example 4 (part B), 100 mg/kg/day", "value": 36180, "unit": "ng·h/mL"}, {"measurement": "half-life", "setting": "[1]; [9]", "value": 5.9, "unit": "h"}, {"measurement": "Cmax", "setting": "[1]; [9]", "value": 730, "unit": "ng/mL"}, {"measurement": "Tmax", "setting": "[1]; [9]", "value": 2.3, "unit": "h"}, {"measurement": "AUC", "setting": "[1]; both sexes, Sprague-Dawley, plasma, po, 10 mg/kg/day, 10 mg/kg/day oral, Day 1, aqueous suspension of spray-dried dispersion of Example 4 (part B), read-out: AUC", "value": 9200, "unit": "ng·h/mL"}, {"measurement": "half-life", "setting": "[1]; [10]", "value": 5.4, "unit": "h"}, {"measurement": "Cmax", "setting": "[1]; [10]", "value": 600, "unit": "ng/mL"}, {"measurement": "Tmax", "setting": "[1]; [10]", "value": 3.3, "unit": "h"}, {"measurement": "AUC", "setting": "[1]; both sexes, Sprague-Dawley, plasma, po, 10 mg/kg/day, 10 mg/kg/day oral, Day 8, aqueous suspension of spray-dried dispersion of Example 4 (part B), read-out: AUC", "value": 7300, "unit": "ng·h/mL"}, {"measurement": "half-life", "setting": "[1]; [11]", "value": 7.8, "unit": "h"}, {"measurement": "Cmax", "setting": "[1]; [11]", "value": 1390, "unit": "ng/mL"}, {"measurement": "Tmax", "setting": "[1]; [11]", "value": 3, "unit": "h"}, {"measurement": "AUC", "setting": "[1]; both sexes, Sprague-Dawley, plasma, po, 30 mg/kg/day, 30 mg/kg/day oral, Day 1, aqueous suspension of spray-dried dispersion of Example 4 (part B), read-out: AUC", "value": 22200, "unit": "ng·h/mL"}, {"measurement": "half-life", "setting": "[1]; [12]", "value": 5.3, "unit": "h"}, {"measurement": "Cmax", "setting": "[1]; [12]", "value": 1320, "unit": "ng/mL"}, {"measurement": "Tmax", "setting": "[1]; [12]", "value": 3.3, "unit": "h"}, {"measurement": "AUC", "setting": "[1]; both sexes, Sprague-Dawley, plasma, po, 30 mg/kg/day, 30 mg/kg/day oral, Day 8, aqueous suspension of spray-dried dispersion of Example 4 (part B), read-out: AUC", "value": 15000, "unit": "ng·h/mL"}, {"measurement": "half-life", "setting": "[1]; [13]", "value": 6.3, "unit": "h"}, {"measurement": "Cmax", "setting": "[1]; [13]", "value": 2130, "unit": "ng/mL"}, {"measurement": "Tmax", "setting": "[1]; [13]", "value": 5, "unit": "h"}, {"measurement": "AUC", "setting": "[1]; both sexes, Sprague-Dawley, plasma, po, 100 mg/kg/day, 100 mg/kg/day oral, Day 1, aqueous suspension of spray-dried dispersion of Example 4 (part B), read-out: AUC", "value": 32600, "unit": "ng·h/mL"}, {"measurement": "half-life", "setting": "[1]; [14]", "value": 5.6, "unit": "h"}, {"measurement": "Cmax", "setting": "[1]; [14]", "value": 2610, "unit": "ng/mL"}, {"measurement": "Tmax", "setting": "[1]; [14]", "value": 4.5, "unit": "h"}, {"measurement": "AUC", "setting": "[1]; both sexes, Sprague-Dawley, plasma, po, 100 mg/kg/day, 100 mg/kg/day oral, Day 8, aqueous suspension of spray-dried dispersion of Example 4 (part B), read-out: AUC", "value": 36200, "unit": "ng·h/mL"}, {"measurement": "AUC", "setting": "in vivo; AUC", "value": 12400, "unit": "ng·h/mL"}, {"measurement": "Cmax", "setting": "in vivo; Cmax", "value": 1160, "unit": "ng/mL"}, {"measurement": "Tmax", "setting": "in vivo; Tmax", "value": 4.3, "unit": "h"}, {"measurement": "half-life", "setting": "in vivo; t1/2", "value": 4.4, "unit": "h"}, {"measurement": "pharmacokinetics (Cmax and AUC) versus dose", "setting": "[2]", "value": "dose proportional exposures"}]}
